# Experimental data published in ChEMBL document CHEMBL3352019, “Recent developments in biological activities of chalcones: a mini review” (Eur J Med Chem, 2014).
# pIC50: −log10 of the molar value.
# What was measured:
# MDA-MB-231 = assay: Anticancer activity against human MDA-MB-231 cells; format: functional, cell-based
# Plasmodium falciparum [1] = assay: Antimalarial activity against Plasmodium falciparum asexual blood stage forms; format: functional, organism-based
# Plasmodium falciparum [2] = assay: Antimalarial activity against Plasmodium falciparum K1; format: functional, organism-based
# Klebsiella aerogenes = assay: Antimicrobial activity against Enterobacter aerogenes by cup-plate agar diffusion method; format: functional
# Staphylococcus aureus [3] = assay: Antimicrobial activity against Staphylococcus aureus by cup-plate agar diffusion method; format: functional
# Aspergillus niger [4] = assay: Antimicrobial activity against Aspergillus niger by cup-plate agar diffusion method; format: functional
# Bacillus = assay: Antimicrobial activity against Bacillus coccus by cup-plate agar diffusion method; format: functional
# Escherichia coli [5] = assay: Antimicrobial activity against Escherichia coli at 50 ug/mL; format: functional; settings: read-out: IZ
# Bacillus subtilis [6] = assay: Antimicrobial activity against Bacillus subtilis at 50 ug/mL; format: functional; settings: read-out: IZ
# Bacillus pumilus = assay: Antimicrobial activity against Bacillus pumilus at 50 ug/mL; format: functional; settings: read-out: IZ
# Aspergillus niger [7] = assay: Antimicrobial activity against Aspergillus niger at 50 ug/mL; format: functional; settings: read-out: IZ
# Bacillus subtilis [8] = assay: Antimicrobial activity against Bacillus subtilis; format: functional
# Penicillium chrysogenum = assay: Antimicrobial activity against Penicillium chrysogenum; format: functional
# Escherichia coli [9] = assay: Antimicrobial activity against Escherichia coli; format: functional
# Candida albicans = assay: Antimicrobial activity against Candida albicans; format: functional
# Rattus norvegicus [10] = assay: Inhibition of inflammation in rat carrageenan-induced rat hind paw edema model; format: functional
# Rattus norvegicus [11] = assay: Inhibition of inflammation in rat carrageenan-induced rat acute paw edema model; format: functional
# Leishmania major = assay: Antiprotozoal activity against Leishmania major promastigote forms; format: functional, organism-based
# [12] = Antioxidant activity assessed as […] free radical scavenging activity; format: physicochemical
# [13] = system: Staphylococcus epidermidis; assay: Antimicrobial activity against Staphylococcus epidermidis; format: functional
# Micrococcus luteus = assay: Antimicrobial activity against Micrococcus luteus; format: functional
# Plasmodium falciparum [14] = assay: Antimalarial activity against CQ-resistant Plasmodium falciparum W2; format: functional, organism-based
# Rattus norvegicus [15] = organism: Rattus norvegicus; assay: Inhibition of inflammation in rat cotton pellet-induced granuloma model; format: functional
# [16] = Anticancer activity against human HSC3 cells; format: functional, cell-based; settings: HSC-3
# Staphylococcus aureus [17] = assay: Antimicrobial activity against Staphylococcus aureus; format: functional
compound,measurement,setting,value
O=C(/C=C/c1cccc(Br)c1)C1=Cc2cc(Cl)ccc2OC1,pIC50,MDA-MB-231,5.15
COc1ccc(/C=C/C(=O)c2ccc(-n3cnc4ccccc43)cc2)c(OC)c1,IC50,Plasmodium falciparum [1],1.1 µg/mL
COc1ccc(/C=C/C(=O)c2c(O)cccc2O)cc1,pIC50,Plasmodium falciparum [2],5.13
COc1ccc(C(=O)/C=C/c2c(-c3ccc(Br)cc3)nc3ccccn23)cc1,inhibition zone (IZ),Klebsiella aerogenes,19 mm
O=C(/C=C/c1c(-c2ccc(Br)cc2)nc2ccccn12)c1ccc(Cl)cc1,inhibition zone (IZ),Staphylococcus aureus [3],19 mm
Cc1ccc(C(=O)/C=C/c2c(-c3ccc(Br)cc3)nc3ccccn23)c(O)c1,inhibition zone (IZ),Aspergillus niger [4],20 mm
same,inhibition zone (IZ),Bacillus,19 mm
COc1ccc(/C=C/C(=O)c2ccc(Cl)cc2Cl)cc1,zone of inhibition at 50 µg/mL,Escherichia coli [5],15 mm
same,zone of inhibition at 50 µg/mL,Bacillus subtilis [6],13 mm
same,zone of inhibition at 50 µg/mL,Bacillus pumilus,8 mm
O=C(/C=C/c1cccc2ccccc12)c1ccc(Cl)cc1Cl,zone of inhibition at 50 µg/mL,Aspergillus niger [7],12 mm
C[C@]12CC[C@H]3[C@@H](CC=C4CC(O)CC[C@@]43C)[C@@H]1CC[C@@H]2C(=O)/C=C/c1ccccc1 (some centres undefined),inhibition zone (IZ),Bacillus subtilis [8],19 mm
same,inhibition zone (IZ),Penicillium chrysogenum,10 mm
O=C(/C=C/c1ccccc1)N1N=C(c2ccc(Cl)cc2)CC1c1c2ccccc2cc2ccccc12 (centres undefined),inhibition zone (IZ),Escherichia coli [9],22 mm
same,inhibition zone (IZ),Candida albicans,12 mm
O=C(/C=C/c1ccccc1)c1nn(-c2ccccc2)c(-c2ccccc2)c1S(=O)(=O)c1ccccc1,inhibition (INH),Rattus norvegicus [10],83.77%
Cc1nc2ccc(Cl)cc2c(-c2ccccc2)c1C(=O)/C=C/c1ccco1,inhibition (INH),Rattus norvegicus [11],81.78%
COc1ccc2c(c1)C=C(C(=O)/C=C/c1ccc(Cl)c(Cl)c1)CO2,pIC50,Leishmania major; Leishmania major,> 6.00
COc1ccc2c(c1)C=C(/C=C/C(=O)c1ccc(Cl)c(Cl)c1)CO2,pIC50,Leishmania major; Leishmania major,> 6.00
C=CCc1ccc(/C=C/C(=O)c2cc(C)ccc2O)cc1O,inhibition (INH),[12],89.64%
COc1ccc(/C=C/C(=O)c2ccc(OC)c(CC=C(C)C)c2O)cc1,MIC,Bacillus subtilis [8]; Bacillus subtilis,2000 µg/mL
same,MIC,[13],2000 µg/mL
same,MIC,Micrococcus luteus,2000 µg/mL
COc1ccc(/C=C/C(=O)c2ccccc2)cc1S(=O)(=O)N1CCOCC1,pIC50,Plasmodium falciparum [14],5.69
O=C(/C=C/c1ccc(F)cc1)c1ccc(O)cc1,inhibition (INH),Rattus norvegicus [15],36.8%
COc1cc(O)c(C(=O)/C=C/c2ccccc2)c(OC)c1 [FLAVOKAWAIN B],IC50,[16],4.9 µg/mL
O=C(/C=C/c1ccc(O)cc1)c1ccc(O)cc1O [ISOLIQUIRITIGENIN],MIC,Staphylococcus aureus [17],15.6 µg/mL
C=CC(C)(C)c1cc(/C=C/C(=O)c2ccc(O)cc2)c(OC)cc1O [LICOAGROCHACONE A],IC50,Plasmodium falciparum [1],1.43 µg/mL
MEGLUMINE ANTIMONATE,pIC50,Leishmania major,> 4.09
